This is an account of results in publication PMC11439681, “The identification of potent dual-target monopolar spindle 1 (MPS1) and histone deacetylase 8 (HDAC8) inhibitors through pharmacophore modeling, molecular docking, molecular dynamics simulations, and biological evaluation” (Frontiers in Pharmacology, 2024).

A word on the IC50: it is the concentration that inhibits the measured activity by half.

In one assay the target is T1, MPS1 (Homo sapiens, UniProt P33981).
T1 construct: purchased Abcam
T1 sequence (P33981 1-857): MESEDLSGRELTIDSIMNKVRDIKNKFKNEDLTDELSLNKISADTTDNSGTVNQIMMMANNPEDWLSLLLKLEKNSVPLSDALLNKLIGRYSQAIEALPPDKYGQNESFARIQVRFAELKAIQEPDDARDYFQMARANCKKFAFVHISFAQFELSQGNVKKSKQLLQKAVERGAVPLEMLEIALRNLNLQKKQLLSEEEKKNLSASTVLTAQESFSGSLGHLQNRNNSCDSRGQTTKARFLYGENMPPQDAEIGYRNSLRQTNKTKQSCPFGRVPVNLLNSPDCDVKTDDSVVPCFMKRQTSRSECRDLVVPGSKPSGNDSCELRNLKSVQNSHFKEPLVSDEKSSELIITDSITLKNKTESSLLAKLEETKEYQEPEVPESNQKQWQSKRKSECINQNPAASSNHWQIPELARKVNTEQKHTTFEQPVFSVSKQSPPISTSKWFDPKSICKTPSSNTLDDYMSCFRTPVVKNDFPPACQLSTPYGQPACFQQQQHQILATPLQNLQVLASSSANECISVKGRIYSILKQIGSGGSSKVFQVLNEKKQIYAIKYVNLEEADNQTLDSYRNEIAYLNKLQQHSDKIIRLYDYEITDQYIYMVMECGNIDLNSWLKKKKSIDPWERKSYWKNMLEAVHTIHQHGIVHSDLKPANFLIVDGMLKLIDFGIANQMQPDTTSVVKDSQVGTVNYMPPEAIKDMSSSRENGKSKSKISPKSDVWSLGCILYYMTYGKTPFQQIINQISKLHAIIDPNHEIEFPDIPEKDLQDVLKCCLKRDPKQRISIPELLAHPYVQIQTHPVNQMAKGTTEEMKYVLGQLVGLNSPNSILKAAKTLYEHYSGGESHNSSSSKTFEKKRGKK
Nature of the assay: In vitro MPS1 inhibitory assay. It counts as biochemical. On the procedure: The methodology is as previously described ([Naud et al., 2013]). In brief, the experiment was conducted using 384-well black low-volume plates, which were loaded with MPS1 (concentration range of 3–12.5 nM), 5 μM fluorescence-labelled peptide (sequence: 5FAM-[…]-CONH2), 10 μM ATP, 1% (v/v) DMSO or the test compound (concentrations in 1% (v/v) DMSO ranged from 0.25 to 100 μM), and assay buffer. […]. The plate was read on a Caliper EZ reader II (PerkinElmer Life Sciences, Waltham, MA, United States). […]

Another assay has as its system HepG2 liver cancer cells. Description: MTT cytotoxicity assay, HepG2. The format is cell-based. The conditions noted are these: Homo sapiens, 72 h cell treatment. As for the experimental part:
The cells (5 × 10^4 cells/well) were incubated overnight in 96-well plates. A series of solutions containing varying concentrations of inhibitors were added and incubated at 37°C for a period of 72 h. Subsequently, the culture medium was removed, followed by a subsequent incubation of the cells with a 5 mg/mL MTT stock solution for 4 h. After centrifugation, the precipitate was solubilized in DMSO and gently shaken for 15 min. Finally, the absorbance measurement at 570 nm was completed using a microplate reader. Data analysis was performed using GraphPad Prism 6.0 software.
(Formazan colour is commonly taken as a measure of viable cells.)

In the next assay the target is T2, HDAC8 (Homo sapiens, UniProt Q9BY41).
T2 construct: purchased Abcam
T2 sequence (Q9BY41 1-377): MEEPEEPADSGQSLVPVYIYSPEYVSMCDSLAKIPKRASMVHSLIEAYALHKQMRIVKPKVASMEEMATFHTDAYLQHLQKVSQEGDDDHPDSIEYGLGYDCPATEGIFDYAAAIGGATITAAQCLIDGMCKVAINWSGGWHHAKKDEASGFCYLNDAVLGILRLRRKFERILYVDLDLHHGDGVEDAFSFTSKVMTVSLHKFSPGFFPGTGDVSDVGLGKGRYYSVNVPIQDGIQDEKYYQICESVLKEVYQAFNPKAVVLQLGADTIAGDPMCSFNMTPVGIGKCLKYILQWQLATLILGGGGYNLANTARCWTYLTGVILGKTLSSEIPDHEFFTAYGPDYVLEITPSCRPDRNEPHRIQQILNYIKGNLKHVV
Nature of the assay: In vitro HDAC8 inhibitory assay. The conditions noted are these: 90 min at 37°C. It counts as biochemical. As for the experimental part:
Inhibition of HDAC8 was determined in 96-well plates. […] The assessment of fluorescence intensity was executed at 390 nm and 460 nm via a microplate reader.

Turning to `O=C(/C=C/c1cccc(S(=O)(=O)Nc2ccccc2)c1)NO` [Belinostat, reference compound], the “MPS1 (IC50, nM)” value on MPS1 (10 μM ATP, 60 min, room temperature) is recorded as “No inhibition”.

As for `CC1=CC(c2cc3cnc(Nc4ccc(-c5cccc[n+]5/C=C/C(=O)NO)cc4Cl)cc3n2C(=O)OC(F)(F)F)C=N1` (stereo not shown) [MPH-1], the 50% inhibitory concentration (IC50) stood at 0.47 µM in the assay with HepG2 liver cancer cells, 17.5 ± 2.32 nM on HDAC8 and 9.38 ± 0.41 nM against MPS1.

Regarding `COc1cc(-c2cncn2/C=C/C(=O)NO)ccc1Nc1cc2c(cn1)cc(C1C=CN=C1)n2C(=O)OC(C)(C)C` (stereo not shown) [MPH-2], the IC50 turned out to be 0.32 µM in the assay with HepG2 liver cancer cells, 8.15 ± 0.58 nM on HDAC8 and 7.6 ± 0.35 nM against MPS1.

For `Cc1ncc(-c2ccc(Nc3cc4c(cn3)cc(C3C=NC(C(F)(F)F)=C3)n4C(=O)OC(C)(C)C)cc2)n1/C=C/C(=O)NO` (stereo not shown) [MPH-3], the IC50 with HepG2 liver cancer cells came to 0.55 µM; against HDAC8 it was 15.2 ± 1.94 nM; at MPS1 it was 13.2 ± 0.82 nM.

`COc1cc(-c2cnc(C)n2/C=C/C(=O)NO)ccc1Nc1cc2c(cn1)cc(C1C=CN=C1)n2C(=O)OC(F)(F)F` (stereo not shown) [MPH-4]: the IC50 with HepG2 liver cancer cells was 0.41 µM; at HDAC8 it was 13.5 ± 0.61 nM; against MPS1 it was 11.7 ± 0.95 nM.

Turning to `CC(C)(C)OC(=O)n1c(-c2cn[nH]c2C(F)F)cc2cnc(Nc3ccc(-c4cnc(C(F)(F)F)n4/C=C/C(=O)NO)cc3Cl)cc21` [MPH-6], the IC50 with HepG2 liver cancer cells came out at 0.53 µM; at HDAC8, 16.6 ± 2.06 nM; against MPS1 it was 10.8 ± 0.69 nM.
